Test results as given in patent US7192948B2, “Bicyclic heterocycles as HIV integrase inhibitors” (priority 2004, dated 2007).

The compounds below were run against T1, HIV-integrase (Human immunodeficiency virus type 1 group M subtype B, UniProt P12497) (assay: HIV-Integrase Inhibition Activity (SPA bead strand transfer assay)). Conditions: recombinant integrase, in vitro.
T1 construct: Recombinant integrase (0.26 ng) was incubated with the beads
Assay type: biochemical
Experimental: HIV-Integrase Inhibition Activity. To evaluate in-vitro activity against HIV-integrase, 5 pmole of biotin labeled substrate DNA was bound to 100 μg of Streptavidin coated PVT SPA beads (Amersham Pharmacia Biotech). Recombinant integrase (0.26 ng) was incubated with the beads for 90 min at 37° C. Unbound enzyme was removed by washing the complex followed by addition of inhibitors and 0.1 fmol of P33 labeled target DNA. The reaction was stopped by adding EDTA to a final concentration of […]. Samples were counted in TopCountNXT (Packard) and the CPM was used as a measure of integration. The reaction condition was as described in A. Engelman and R. Craigie, J. Virol. 69, 5908–5911 (1995). The sequences of substrate and target DNA were described in Nucleic Acid Research 22, 1121–1122 (1994).

SMILES | IC50 [nM]
O=C(NCc1ccc(F)cc1)c1nc2n(c(=O)c1O)CCS(=O)(=O)N2 [Example 24, 7-Hydroxy-2,2,6-trioxo-1,3,4,6-tetrahydro-2H-2λ^6-pyrimido[2,1-c][1,2,4]thiadiazine-8-carboxylic acid 4-fluoro-benzylamide] | ≥ 50
Cc1cc(CNC(=O)c2nc3n(c(=O)c2O)CC(=O)N(C)N3)ccc1F [Example 30, N-(4-Fluoro-3-methylbenzyl)-7-hydroxy-2-methyl-3,6-dioxo-2,3,4,6-tetrahydro-1H-pyrimido[2,1-c][1,2,4]triazine-8-carboxamide] | ≥ 50
Cc1cc(CNC(=O)c2nc3n(c(=O)c2O)CC(=O)N2CCCCN32)ccc1F [Example 32, 2-Hydroxy-1,9-dioxo-5,6,7,8,9,10-hexahydro-1H-4,4b,8a,10a-tetraaza-phenanthrene-3-carboxylic acid 4-fluoro-3-methyl-benzylamide] | 4 to 15
O=C(NCc1ccc(Cl)c(Cl)c1)c1nc2n(c(=O)c1O)CCS2 [Example 38, N-(3,4-Dichlorobenzyl)-6-hydroxy-5-oxo-3,5-dihydro-2H-thiazolo[3,2-a]pyrimidine-7-carboxamide] | 4 to 15
CN1C(=O)Cn2c(nc(C(=O)NCc3ccc(F)c(Cl)c3)c(O)c2=O)N1C [Example 28, N-(3-Chloro-4-fluorobenzyl)-1,2-dimethyl-7-hydroxy-3,6-dioxo-2,3,4,6-tetrahydro-1H-pyrimido[2,1-c][1,2,4]triazine-8-carboxamide] | 16 to 49000
O=C(NCc1ccc(F)cc1)c1nc2n(c(=O)c1O)CC(=O)N1CCCN21 [Example 34, 7-Hydroxy-4,6-dioxo-2,3,4,5-tetrahydro-1H,6H-3a,5a,9,9b-tetraaza-benz[e]indene-8-carboxylic acid 4-fluoro-benzylamide] | 16 to 49000
O=C(NCc1ccc(F)cc1)c1nc2n(c(=O)c1O)CC(=O)N1CCCCN21 [Example 33, 2-Hydroxy-1,9-dioxo-5,6,7,8,9,10-hexahydro-1H-4,4b,8a,10a-tetraaza-phenanthrene-3-carboxylic acid 4-fluoro-benzylamide] | 16 to 49000
O=C1Cn2c(nc(C(=O)NCc3ccc(F)cc3)c(O)c2=O)CN1 [Example 43, N-(4-Fluorobenzyl)-3-hydroxy-4,7-dioxo-6,7,8,9-tetrahydro-4H-pyrazino[1,2-a]pyrimidine-2-carboxamide] | ≥ 50
CN1Nc2nc(C(=O)NCc3ccc(Cl)c(Cl)c3)c(O)c(=O)n2CC1=O [Example 31, N-(3,4-Dichlorobenzyl)-7-hydroxy-2-methyl-3,6-dioxo-2,3,4,6-tetrahydro-1H-pyrimido[2,1-c][1,2,4]triazine-8-carboxamide] | 4 to 15
CNC(=O)c1cc(F)ccc1CNC(=O)c1nc2n(c(=O)c1O)CC(C)(C)S2 [Example 42, N-(4-Fluoro-2-(methylcarbamoyl)benzyl)-6-hydroxy-2,2-dimethyl-5-oxo-3,5-dihydro-2H-thiazolo[3,2-a]pyrimidine-7-carboxamide] | ≥ 50
Cc1cc(CNC(=O)c2nc3n(c(=O)c2O)CC(=O)N3Cc2ccccc2)ccc1F [Example 15, N-(4-Fluoro-3-methylbenzyl)-1-benzyl-6-hydroxy-2,5-dioxo-1,2,3,5-tetrahydroimidazo[1,2-a]pyrimidine-7-carboxamide] | 16 to 49000
CC1(C)NC(=O)Cn2c1nc(C(=O)NCc1ccc(F)cc1)c(O)c2=O [Example 45, N-(4-fluorobenzyl)-3-hydroxy-9,9-dimethyl-4,7-dioxo-6,7,8,9-tetrahydro-4H-pyrazino[1,2-a]pyrimidine-2-carboxamide] | 16 to 49000
O=C(NCc1ccc(F)cc1)c1nc2n(c(=O)c1O)CC(=O)N2Cc1ccccc1 [Example 14, N-(4-Fluorobenzyl)-1-benzyl-6-hydroxy-2,5-dioxo-1,2,3,5-tetrahydroimidazo[1,2-a]pyrimidine-7-carboxamide] | 16 to 49000
CN1C(=O)Cn2c1nc(C(=O)NCc1ccc(F)c(Cl)c1)c(O)c2=O [Example 12, N-(3-Chloro-4-fluorobenzyl)-6-hydroxy-1-methyl-2,5-dioxo-1,2,3,5-tetrahydroimidazo[1,2-a]pyrimidine-7-carboxamide] | 16 to 49000
O=C(NCc1ccc(F)cc1)c1nc2n(c(=O)c1O)CC(=O)N1CCC[C@@H]21 [Example 46, (S)-7-Hydroxy-4,6-dioxo-2,3,4,5,6,9b-hexahydro-1H-3a,5a,9-triaza-benz[e]indene-8-carboxylic acid 4-fluoro-benzylamide] | ≥ 50
O=C(NCc1ccc(F)cc1)c1nc2n(c(=O)c1O)CCS2 [Example 36, N-(4-Fluorobenzyl)-6-hydroxy-5-oxo-3,5-dihydro-2H-thiazolo[3,2-a]pyrimidine-7-carboxamide] | 4 to 15
CC1(C)Cn2c(nc(C(=O)NCc3ccc(F)cc3)c(O)c2=O)S1 [Example 41, N-(4-Fluorobenzyl)-6-hydroxy-2,2-dimethyl-5-oxo-3,5-dihydro-2H-thiazolo[3,2-a]pyrimidine-7-carboxamide] | ≥ 50
CN1Cc2nc(C(=O)NCc3ccc(F)cc3)c(O)c(=O)n2CC1=O [Example 44, N-(4-Fluorobenzyl)-3-hydroxy-8-methyl-4,7-dioxo-6,7,8,9-tetrahydro-4H-pyrazino[1,2-a]pyrimidine-2-carboxamide] | ≥ 50
CNC(=O)c1cc(F)ccc1CNC(=O)c1nc2n(c(=O)c1O)CC(=O)N2C [Example 17, N-{4-Fluoro-2-(methylcarbamoyl)benzyl}-6-hydroxy-1-methyl-2,5-dioxo-1,2,3,5-tetrahydroimidazo[1,2-a]pyrimidine-7-carboxamide] | ≥ 50
CNC(=O)c1cc(F)ccc1CNC(=O)c1nc2n(c(=O)c1O)CC(=O)N2Cc1ccccc1 [Example 16, N-(4-Fluoro-2-(methylcarbamoyl)benzyl)-1-benzyl-6-hydroxy-2,5-dioxo-1,2,3,5-tetrahydroimidazo[1,2-a]pyrimidine-7-carboxamide] | 16 to 49000
CN1C(=O)Cn2c1nc(C(=O)NCc1ccc(F)cc1)c(O)c2=O [Example 9, N-(4-Fluorobenzyl)-6-hydroxy-1-methyl-2,5-dioxo-1,2,3,5-tetrahydroimidazo[1,2-a]pyrimidine-7-carboxamide] | ≥ 50
Cc1cc(CNC(=O)c2nc3n(c(=O)c2O)CC(=O)N3C)ccc1F [Example 11, N-(4-Fluoro-3-methylbenzyl)-6-hydroxy-1-methyl-2,5-dioxo-1,2,3,5-tetrahydroimidazo[1,2-a]pyrimidine-7-carboxamide] | 4 to 15
O=C1Cn2c(nc(C(=O)NCc3ccc(F)cc3)c(O)c2=O)N1 [Example 1, 6-Hydroxy-2,5-dioxo-1,2,3,5-tetrahydro-imidazo[1,2-a]pyrimidine-7-carboxylic acid 4-fluoro-benzylamide] | ≥ 50
CN1Nc2nc(C(=O)NCc3ccc(F)cc3)c(O)c(=O)n2CC1=O [Example 29, N-(4-Fluorobenzyl)-7-hydroxy-2-methyl-3,6-dioxo-2,3,4,6-tetrahydro-1H-pyrimido[2,1-c][1,2,4]triazine-8-carboxamide] | ≥ 50
Cc1cc(CNC(=O)c2nc3n(c(=O)c2O)CCS3)ccc1F [Example 37, N-(4-Fluoro-3-methylbenzyl)-6-hydroxy-5-oxo-3,5-dihydro-2H-thiazolo[3,2-a]pyrimidine-7-carboxamide] | 4 to 15
Cc1ccc(CNC(=O)c2nc3n(c(=O)c2O)CCS3)cc1C [Example 39, N-(3,4-Dimethylbenzyl)-6-hydroxy-5-oxo-3,5-dihydro-2H-thiazolo[3,2-a]pyrimidine-7-carboxamide] | 16 to 49000
